Consider 19 compounds from paper PMC4269550, “Lead Optimization of a Pyrazole Sulfonamide Series of Trypanosoma bruceiN-Myristoyltransferase Inhibitors: Identification and Evaluation of CNS Penetrant Compounds as Potential Treatments for Stage 2 Human African Trypanosomiasis” (Journal of Medicinal Chemistry, 2014).

pEC50, pIC50: −log10 of the molar value. Like-named read-outs stand apart in the source and are kept apart here. Bounds are passed on as bounds.

The nature of series [1]: Intrinsic clearance (Cli), mouse liver microsomes. Type of series: in vitro ADME. The settings on record: for Cli: mouse microsomes. For orientation: Microsomes from liver hold many membrane-bound enzymes, among them those of drug oxidation.
A short description of series [2]: Mouse pharmacokinetics. It is filed as in vivo. Particulars: words. As for the experimental part:
Test compound was dosed as a bolus solution intravenously at 3 mg free base/kg (dose volume, 5 mL/kg; dose vehicle, saline or 5% DMSO; 40% PEG400; 55% saline) to female NMRI mice (n = 3) or dosed orally by gavage as a solution at 10 and/or 50 mg free base/kg (dose volume, 5 mL/kg; dose vehicle, 5% DMSO; 95% distilled water or 5% DMSO; 40% PEG400; 55% distilled water) to female NMRI mice (n = 3/dose level). Female NMRI mice were chosen as these represent the sex and strain used for the stage 1 and stage 2 HAT efficacy models. Blood samples were taken from each mouse at 2 (IV only), 5 (IV only), 15, and 30 min, 1, 2, 4, 6, 8, and 24 (po only) hours postdose and mixed with two volumes of distilled water. After suitable sample preparation, the concentration of test compound in blood was determined by UPLC-MS/MS using a Quattro Premier XE (Waters, USA). Pharmacokinetic parameters were derived from the mean blood concentration time curve using PKsolutions software v 2.0 (Summit Research Services, USA).

The nature of series [3]: In vitro metabolite identification with mouse microsomes. The settings on record: for % Parent remaining (t = 15 min): 5µM, 15 min at 37°C, mouse liver microsomes; for sulfonamide N-dealkylation on incubation with mouse microsomes: words. It is filed as in vitro ADME.
Series [4] in a line: in vitro. Type of series: cell-based, human. Particulars: human; read-out: MRC-5 EC50.
Series [5] addresses T1, TbNMT (Trypanosoma brucei brucei, UniProt Q388H8).
T1 sequence (Q388H8 1-446): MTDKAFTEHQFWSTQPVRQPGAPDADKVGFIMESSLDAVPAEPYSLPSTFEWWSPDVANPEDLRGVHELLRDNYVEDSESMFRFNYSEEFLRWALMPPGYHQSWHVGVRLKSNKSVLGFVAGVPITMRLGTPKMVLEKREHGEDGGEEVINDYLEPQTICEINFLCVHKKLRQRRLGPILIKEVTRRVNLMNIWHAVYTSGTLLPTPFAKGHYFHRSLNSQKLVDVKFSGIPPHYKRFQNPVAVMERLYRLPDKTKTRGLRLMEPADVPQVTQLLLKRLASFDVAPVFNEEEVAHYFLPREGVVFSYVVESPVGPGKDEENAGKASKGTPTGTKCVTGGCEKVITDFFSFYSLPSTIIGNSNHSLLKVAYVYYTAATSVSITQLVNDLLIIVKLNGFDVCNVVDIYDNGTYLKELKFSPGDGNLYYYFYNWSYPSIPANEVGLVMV
As to the kind of experiment: NMT enzyme inhibition scintillation proximity assay (TbNMT). Type of series: biochemical, T. brucei.

In series [6] the test system is T. b. brucei, BSF427, VSG118. As to the kind of experiment: Cell viability assay, trypanosome. Type of series: cell-based.
Series [7] relates to MRC5, human lung fibroblast cells. Kind of series: in vitro. It is filed as cell-based.
Series [8] deals with HsNMT. Type of series: biochemical, human. Particulars: for pIC50: mean of two or more determinations.
[9] abbreviates: mean of two or more determinations, read-out: TbNMT IC50.

With `CCN(c1c(C)nn(C)c1C)S(=O)(=O)c1c(Cl)cc(CCCN2CCN(C)CC2)cc1Cl` [compound 34], the “Cli (mouse)” value in series [1] (mouse liver microsomes) is given as 3.1 mL min^–1 g^–1. In series [1], this compound registered a Cli of 3.1 mL/min/g. Further, in series [2], the “oral exposure in mouse” value is given as “poor oral exposure”. Further, in series [3], the “% Parent remaining (t = 15 min)” value came out at 37% and the “sulfonamide N-dealkylation on incubation with mouse microsomes” value (“sulfonamide N-dealkylation on incubation” below) was “N-dealkylated sulfonamide as the predominant metabolite”.

Regarding `Cc1nn(C)c(C)c1N(C)[S+](=O)([O-])c1c(Cl)cc(CCCC2CCN(C)CC2)cc1Cl` [compound 37], in series [4], the negative logarithm of the EC50 (pEC50) is 5.96. Moreover, the “Cli (mouse)” value in series [1] (mouse liver microsomes) is on record as 7.3 mL min^–1 g^–1. The compound further yielded a Cli in series [1] of 7.3 mL/min/g. Further, in series [3], the “% Parent remaining (t = 15 min)” value is listed as 25% and the “sulfonamide N-dealkylation on incubation” value was “N-dealkylated sulfonamide as the predominant metabolite”.

In the case of `CCN(c1c(C)nn(C)c1C)[S+](=O)([O-])c1c(Cl)cc(CCCC2CCN(C)CC2)cc1Cl` [compound 39], in series [4], the pEC50 was 5.66. For the same compound, the “Cli (mouse)” value in series [1] (mouse liver microsomes) was 12 mL min^–1 g^–1. Further, in series [3], the “% Parent remaining (t = 15 min)” value was determined as 52% and the “sulfonamide N-dealkylation on incubation” value is on record as “N-dealkylated sulfonamide as the predominant metabolite”.

Consider `Cc1nn(C)c(C)c1N(C(F)F)S(=O)(=O)c1c(Cl)cc(CCCN2CCN3CCC[C@@H]3C2)cc1Cl` [compound 53], for which, in series [1] (mouse liver microsomes), the “Cli (mouse)” value stood at 15 mL min^–1 g^–1. The same compound showed a Cli in series [1] of 15 mL/min/g. Besides, the “oral exposure in mouse” value in series [2] is “no improvement to oral exposure”.

Regarding `Cc1nn(C)c(C)c1NS(=O)(=O)c1c(F)cc(-c2ccnc(N3CCNCC3)c2)cc1F` [compound 59], in series [5] (setting [9]), the pIC50 is 8.40. The pEC50 was 8.30 in series [6] and 5.33 in series [7]. Further, the “Cli (mouse)” value in series [1] (Table S1, unit not given) is less than 0.5.

As to `Cc1nn(C)c(C)c1NS(=O)(=O)c1ccc(-c2ccnc(N3CCNC(c4ccccc4)C3)c2)cc1` (stereo not shown) [compound 61], the negative logarithm of the IC50 (pIC50) in series [5] is 6.10; in series [8], 5.61. Moreover, in series [8] (selectivity), the “S = IC50 HsNMT/EC50 T. brucei” value was less than 1. For the same compound, the negative-log EC50 (pEC50) in series [6] (Trypanosoma brucei) was less than 5.00; in series [4], less than 4.30.

Consider `Cc1nn(C)c(C)c1NS(=O)(=O)c1ccc(-c2ccnc(N3CCNC(Cc4ccccc4)C3)c2)cc1` (stereo not shown) [compound 64], for which the pIC50 in series [5] is 6.96; in series [8], 5.82. The “S = IC50 HsNMT/EC50 T. brucei” value in series [8] (selectivity) is listed as less than 1. The pEC50 was less than 5.00 in series [6] (Trypanosoma brucei) and less than 4.30 in series [4].

On to `Cc1nn(C)c(C)c1N(C(F)F)S(=O)(=O)c1c(Cl)cc(CCCCCCn2ccnc2)cc1Cl` [compound 67], for which the pIC50 is 8.30 in series [5] and 6.85 in series [8]. In addition, the “S = IC50 HsNMT/EC50 T. brucei” value in series [8] worked out at 4. Besides, the pEC50 is 7.46 in series [6] (Trypanosoma brucei) and 5.14 in series [4].

For the compound `Cc1nn(C)c(C)c1N(C(F)F)S(=O)(=O)c1c(Cl)cc(CCCCCCn2ccnc2C(C)C)cc1Cl` [compound 70], the pIC50 was 7.60 in series [5] and 6.30 in series [8]. In addition, the “S = IC50 HsNMT/EC50 T. brucei” value in series [8] is listed as 2. The pEC50 in series [6] (Trypanosoma brucei) is 6.57; in series [4], 5.44.

Take `Cc1nn(C)c(C)c1N(C(F)F)S(=O)(=O)c1c(Cl)cc(CCCOC2CC3CCC(C2)N3C)cc1Cl` (stereo not shown) [compound 71]: the pIC50 in series [5] (setting [9]) is 8.70; in series [8], 7.21. For the same compound, the “S = IC50 HsNMT/EC50 T. brucei” value in series [8] (selectivity) is listed as 6. Further, the pEC50 in series [6] is 8.00; in series [7], 5.82.

Regarding `Cc1nn(C)c(C)c1N(C(F)F)S(=O)(=O)c1c(Cl)cc(CCCOC2CC(C)(C)N(C)C(C)(C)C2)cc1Cl` [compound 75], the pIC50 in series [5] (setting [9]) is 8.00; in series [8], 5.77. In addition, the “S = IC50 HsNMT/EC50 T. brucei” value in series [8] (selectivity) worked out at 27. The negative-log EC50 (pEC50) in series [6] was 7.19; in series [7], 5.28.

For `Cc1nn(C)c(C)c1N(C(F)F)S(=O)(=O)c1c(Cl)cc(CCCOC2CCC(N(C)C)CC2)cc1Cl` (stereo not shown) [compound 76], the negative logarithm of the IC50 (pIC50) in series [5] (setting [9]) was 8.70; in series [8], 8.30. Also, the “S = IC50 HsNMT/EC50 T. brucei” value in series [8] (selectivity) is given as 2. Further, the pEC50 in series [6] was 8.52; in series [7], 6.24.

Consider `Cc1nn(C)c(C)c1N(C(F)F)S(=O)(=O)c1c(Cl)cc(CCCCCCN2CCOCC2)cc1Cl` [compound 79], for which the pIC50 in series [5] (setting [9]) was 7.26. For the same compound, the pEC50 in series [6] was 6.49; in series [7] it was 4.91.

In the case of `CCN(CC)CCCCCCc1cc(Cl)c(S(=O)(=O)N(c2c(C)nn(C)c2C)C(F)F)c(Cl)c1` [compound 81], the pIC50 in series [5] (setting [9]) was 8.52; in series [8] it was 7.38. Further, the “S = IC50 HsNMT/EC50 T. brucei” value in series [8] (selectivity) is on record as 3. Also, the pEC50 in series [6] is 7.85; in series [7], 5.54.

Consider `Cc1nn(C)c(C)c1N(C(F)F)S(=O)(=O)c1c(Cl)cc(CCCCCCN(C)C(C)C)cc1Cl` [compound 84], for which the figures for the pIC50 in series [5] (setting [9]) and in series [8] were 8.52 and 6.74, respectively. Also, in series [8] (selectivity), the “S = IC50 HsNMT/EC50 T. brucei” value worked out at 5. Further, the results for the negative logarithm of the EC50 (pEC50) in series [6] and in series [7] were 7.42 and 5.29, respectively.

As for `Cc1nn(C)c(C)c1N(C(F)F)S(=O)(=O)c1c(Cl)cc(CCCOC[C@@H]2CCCN2)cc1Cl` [compound 86], the pIC50 is 8.70 in series [5] (setting [9]) and 6.96 in series [8]. The “S = IC50 HsNMT/EC50 T. brucei” value in series [8] (selectivity) came to 18. Also, the pEC50 in series [6] was 8.22; in series [7], 5.48.

For the compound `Cc1nn(C)c(C)c1N(C(F)F)S(=O)(=O)c1c(Cl)cc(CCCOC[C@H]2CCCN2)cc1Cl` [compound 87], the results for the pIC50 in series [5] (setting [9]) and in series [8] were 8.52 and 7.48, respectively. Besides, the “S = IC50 HsNMT/EC50 T. brucei” value in series [8] (selectivity) was determined as 7. Moreover, the pEC50 in series [7] is 5.49.

`Cc1nn(C)c(C)c1N(C(F)F)S(=O)(=O)c1c(Cl)cc(CCCOC[C@@H]2CCCCN2)cc1Cl` [compound 88]: the negative logarithm of the IC50 (pIC50) is 8.15 in series [5] (setting [9]) and 6.08 in series [8]. Further, the “S = IC50 HsNMT/EC50 T. brucei” value in series [8] (selectivity) was 10. In addition, the pEC50 was 7.06 in series [6] and 5.28 in series [7].

For the compound `Cc1nn(C)c(C)c1N(C(F)F)S(=O)(=O)c1c(Cl)cc(CCCOC[C@H]2CCCCN2)cc1Cl` [compound 89], the negative-log IC50 (pIC50) is 8.15 in series [5] (setting [9]) and 6.24 in series [8]. Also, the “S = IC50 HsNMT/EC50 T. brucei” value in series [8] (selectivity) worked out at 7. Further, the values for the pEC50 in series [6] and in series [7] were 7.07 and 5.30, respectively.

What is called pEC50 is −log10 of the EC50, conventionally taken in molar units. The term pIC50 denotes the IC50 on a negative log10 scale, so that one unit is a factor of ten.
